What all share (test): agar dilution test (MIC)
What all share (format): cell-based

One assay relates to Kl.aerog. 1082E. Conditions: Mueller Hinton agar, 16 to 18 hours at 37°C, read-out: Minimum Inhibitory Concentration (MIC). The method, then:
(§1) The antimicrobial activity was determined by measuring the Minimum Inhibitory Concentration (MIC). The MIC of the compounds was determined by a standard test, the "agar dilution test" according to Lorian (Antibiotics in Laboratory Medicine, Williams and Wilkins, Baltimore/London 1980) as follows:
(§2) A two-fold decreasing concentration series of each compound was prepared in Petri dishes containing 15 ml of Mueller Hinton agar (Difco). One Petri dish containing only the Mueller Hinton agar served as control for bacterial growth. Each Petri dish was inoculated with a multi-point inoculator (Denley), which transferred 0.6µl of a 1:100 diluted 18 hours culture of the appropriate test bacterium. After 16 to 18 hours of incubation at 37°C the Petri dishes were examined for growth of bacteria. The lowest concentration of the compound which causes complete inhibition of growth is taken as the MIC except that the growth of a single colony or a haze is not taken as evidence of qrowth.

Another assay concerns E.coli DC0. Conditions: Escherichia coli, Mueller Hinton agar, 16 to 18 hours at 37°C, read-out: Minimum Inhibitory Concentration (MIC). The method, then:
as §1, §2

The subject of another assay is E.coli KN126. Conditions: Escherichia coli, Mueller Hinton agar, 16 to 18 hours at 37°C, read-out: Minimum Inhibitory Concentration (MIC). On the procedure: as §1, §2
In the next assay the test system is Staph.aureus 285. As to conditions: Staphylococcus aureus, Mueller Hinton agar, 16 to 18 hours at 37°C, read-out: Minimum Inhibitory Concentration (MIC). The method, then:
as §1, §2

The subject of the next assay is Str.pyogenes 77A. Conditions: Streptococcus pyogenes, Mueller Hinton agar, 16 to 18 hours at 37°C, read-out: Minimum Inhibitory Concentration (MIC). On the procedure:
as §1, §2

In the next assay the test system is Staph.aureus 503. As to conditions: Staphylococcus aureus, Mueller Hinton agar, 16 to 18 hours at 37°C, read-out: Minimum Inhibitory Concentration (MIC). On the procedure: as §1, §2
The subject of the next assay is E.coli 1507E. As to conditions: Escherichia coli, 1507E, read-out: Minimum Inhibitory Concentration (MIC). The method, then: as §1, §2
The next assay deals with Str.pyogenes 308A. As to conditions: Streptococcus pyogenes, Mueller Hinton agar, 16 to 18 hours at 37°C, read-out: Minimum Inhibitory Concentration (MIC). On the procedure:
as §1, §2

For another assay, the system named is Staph.aureus SG511. As to conditions: Staphylococcus aureus, Mueller Hinton agar, 16 to 18 hours at 37°C, read-out: Minimum Inhibitory Concentration (MIC). On the procedure: as §1, §2
In another assay the test system is E.coli TEM. Conditions: Escherichia coli, read-out: Minimum Inhibitory Concentration (MIC). On the procedure:
as §1, §2

For the next assay, the system named is Kl.aerog. 1522E. Conditions: read-out: Minimum Inhibitory Concentration (MIC). The method, then:
as §1, §2

A further assay relates to E.coli 055. Conditions: Escherichia coli, Mueller Hinton agar, 16 to 18 hours at 37°C, read-out: Minimum Inhibitory Concentration (MIC). On the procedure:
as §1, §2

Another assay relates to E.coli DC2. As to conditions: Escherichia coli, Mueller Hinton agar, 16 to 18 hours at 37°C, read-out: Minimum Inhibitory Concentration (MIC). On the procedure:
as §1, §2

In a further assay the test system is Bac.subt. ATCC6633. As to conditions: Mueller Hinton agar, 16 to 18 hours at 37°C, read-out: Minimum Inhibitory Concentration (MIC). The method, then: as §1, §2
The next assay deals with Ent.cloacae P99. As to conditions: Enterobacter cloacae, Mueller Hinton agar, 16 to 18 hours at 37°C, read-out: Minimum Inhibitory Concentration (MIC). The method, then: as §1, §2
Another assay concerns Str.faecium D. As to conditions: Enterococcus faecium; Str.faecium D; Mueller Hinton agar, 16 to 18 hours at 37°C; read-out: Minimum Inhibitory Concentration (MIC). On the procedure:
as §1, §2

A further assay relates to Salm.typh. MZII. Conditions: Mueller Hinton agar, 16 to 18 hours at 37°C, read-out: Minimum Inhibitory Concentration (MIC). On the procedure:
as §1, §2

A further assay deals with Ent.cloacae 1321E. As to conditions: Enterobacter cloacae, 1321E, read-out: Minimum Inhibitory Concentration (MIC). The method, then: as §1, §2

The structures appear in SMILES notation. In brackets after ≈: the same amount, converted by molar mass.

Take `COc1ccc(C2=C(C(=O)O)N3C(=O)[C@H]([C@@H](C)O)[C@H]3S2)cc1` [Example 4-OCH3]: the MIC in the assay with Kl.aerog. 1082E is 0.78 µg/mL (≈ 2.43 µM); in the assay with E.coli DC0, 25 µg/mL (≈ 77.8 µM); with E.coli KN126 it was 12.5 µg/mL (≈ 38.9 µM); with Staph.aureus 285, 0.19 µg/mL (≈ 0.591 µM); in the assay with Str.pyogenes 77A it was below 0.05 µg/mL; with Staph.aureus 503, 0.19 µg/mL (≈ 0.591 µM). Also, the MIC was 12.5 µg/mL (≈ 38.9 µM) with E.coli 1507E; below 0.05 µg/mL in the assay with Str.pyogenes 308A; 0.1 µg/mL (≈ 0.311 µM) in the assay on Staph.aureus SG511; 12.5 µg/mL (≈ 38.9 µM) in the assay on E.coli TEM; 12.5 µg/mL (≈ 38.9 µM) in the assay with Kl.aerog. 1522E; 3.13 µg/mL (≈ 9.74 µM) in the assay on E.coli 055. The MIC turned out to be 0.78 µg/mL (≈ 2.43 µM) with E.coli DC2; 0.1 µg/mL (≈ 0.311 µM) with Bac.subt. ATCC6633; 100 µg/mL (≈ 311 µM) with Ent.cloacae P99; 3.13 µg/mL (≈ 9.74 µM) in the assay on Str.faecium D; 6.25 µg/mL (≈ 19.4 µM) in the assay with Salm.typh. MZII; 12.5 µg/mL (≈ 38.9 µM) with Ent.cloacae 1321E.

The values above are taken from patent EP0212404A1, “7-oxo-4-thia-1-azabicyclo [3.2.0] hept-2-ene derivatives” (HOECHST AKTIENGESELLSCHAFT, priority 1985, dated 1987).
